Data from PMC3969779 (Journal of molecular biology, 2013).
Ends that are not written are not given here.

T1: BRPF1 bromodomain (Homo sapiens, UniProt P55201)
T1 sequence (P55201 629-742): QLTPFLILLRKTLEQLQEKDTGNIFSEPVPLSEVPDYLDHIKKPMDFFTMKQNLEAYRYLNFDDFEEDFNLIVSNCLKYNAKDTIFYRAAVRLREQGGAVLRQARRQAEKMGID

T2: Histone H2AK5ac peptide (1-12) (Homo sapiens)
T2 chain: SGRGK(Ac)QGGKARA

T3: Histone H4K8ac peptide (4-17) (Homo sapiens, H4 K8 acetylated)
T3 chain: GKGGKGLGKGGAKR

T4: Histone H4K12ac peptide (4-17) (Homo sapiens)
T4 chain: GKGGKGLGK(Ac)GGAKR

T5: Histone H3K14ac peptide (8-19) (Homo sapiens)
T5 chain: RKSTGGK(Ac)APRKQ


Tests used:
BRPF1 bromodomain [1] = target: T1, BRPF1 bromodomain; experiment: Isothermal titration calorimetry; type: binding
BRPF1 bromodomain [2] = target: T1, BRPF1 bromodomain; experiment: NMR titration; type: binding
[3] = target: T2, Histone H2AK5ac peptide (1-12); experiment: NMR titration
[4] = target: T3, Histone H4K8ac peptide (4-17); experiment: NMR titration
[5] = target: T4, Histone H4K12ac peptide (4-17); experiment: NMR titration
[6] = target: T5, Histone H3K14ac peptide (8-19); experiment: NMR titration

Molecule	Kd (BRPF1 bromodomain [1]) [µM]	Kd [3] [µM]	Kd [4] [µM]	Kd [5] [µM]	Kd [6] [µM]	Kd (BRPF1 bromodomain [2]) [µM]
CC(=O)NCCCC[C@H](NC(=O)CNC(=O)CNC(=O)[C@@H](NC(=O)[C@H](CO)NC(=O)[C@H](CCCCN)NC(=O)[C@@H](N)CCCNC(=N)N)[C@@H](C)O)C(=O)N[C@@H](C)C(=O)N1CCC[C@H]1C(=O)N[C@@H](CCCNC(=N)N)C(=O)N[C@@H](CCCCN)C(=O)N[C@@H](CCC(N)=O)C(N)=O [H3K14ac (8-19)]	626 ± 27					597 ± 53
CC(=O)NCCCC[C@H](NC(=O)CNC(=O)CNC(=O)[C@H](CCCCN)NC(=O)CN)C(=O)NCC(=O)N[C@@H](CC(C)C)C(=O)NCC(=O)N[C@@H](CCCCN)C(=O)NCC(=O)NCC(=O)N[C@@H](C)C(=O)N[C@@H](CCCCN)C(=O)N[C@@H](CCCNC(=N)N)C(N)=O [H4K8ac (4-17)]						697 ± 57
BRPF1 bromodomain 629-742 (protein) QLTPFLILLRKTLEQLQEKDTGNIFSEPVPLSEVPDYLDHIKKPMDFFTMKQNLEAYRYLNFDDFEEDFNLIVSNCLKYNAKDTIFYRAAVRLREQGGAVLRQARRQAEKMGID		57	697	74	597	

More lines, main results first:

Kd (BRPF1 bromodomain [1]) [µM]	Kd [3] [µM]	Kd [4] [µM]	Kd [5] [µM]	Kd [6] [µM]	Molecule	Kd (BRPF1 bromodomain [2]) [µM]
86.5 ± 9.1					CC(=O)NCCCC[C@H](NC(=O)CNC(=O)[C@H](CC(C)C)NC(=O)CNC(=O)[C@H](CCCCN)NC(=O)CNC(=O)CNC(=O)[C@H](CCCCN)NC(=O)CN)C(=O)NCC(=O)NCC(=O)N[C@@H](C)C(=O)N[C@@H](CCCCN)C(=O)N[C@@H](CCCNC(=N)N)C(N)=O [H4K12ac (4-17)]	74 ± 18
48.5 ± 1.5					SGRGK(Ac)QGGKARA-NH2 [H2AK5ac (1-12)]	57 ± 4
